The record followed here is ChEMBL document CHEMBL1128632, “The discovery of a series of new non-indole 5HT1D agonists” (Bioorg Med Chem Lett, 1995).

The species named for one assay is Canis familiaris. Kind of assay: Effective dose required to induce constriction of dog saphenous vein segments. It is filed as functional. The conditions noted are these: Canis lupus familiaris, read-out: ED50 (the source's name).
The species named for assay [1] is Sus scrofa. In words: Ability to induce constriction of pig basilary artery. The assay is classed as functional. The conditions noted are these: read-out: ED50 (the source's name).
Assay [2] has as its target T1, 5-hydroxytryptamine receptor 1A (Homo sapiens, UniProt P08908).
T1 sequence (P08908 whole entry): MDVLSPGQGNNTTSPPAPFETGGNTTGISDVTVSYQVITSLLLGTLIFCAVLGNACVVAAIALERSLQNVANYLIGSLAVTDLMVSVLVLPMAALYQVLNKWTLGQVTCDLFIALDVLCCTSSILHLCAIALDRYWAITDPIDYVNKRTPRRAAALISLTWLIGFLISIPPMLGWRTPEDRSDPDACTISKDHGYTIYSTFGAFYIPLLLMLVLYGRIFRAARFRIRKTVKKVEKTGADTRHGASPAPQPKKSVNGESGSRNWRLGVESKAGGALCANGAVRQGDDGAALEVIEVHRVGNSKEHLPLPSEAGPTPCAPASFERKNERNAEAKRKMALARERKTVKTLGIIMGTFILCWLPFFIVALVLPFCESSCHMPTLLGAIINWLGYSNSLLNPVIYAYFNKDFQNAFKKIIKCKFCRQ
Kind of assay: Ability to bind to 5-hydroxytryptamine 1A receptor from cloned human expressed in Ha7 cells. The assay is classed as cell-based.

In assay [3] the target is T1, 5-hydroxytryptamine receptor 1A. Kind of assay: Ability to bind to 5-hydroxytryptamine 1A receptor subtype from cloned human expressed in Ha7 cells. The assay is classed as cell-based.
For assay [4], the species on record is Sus scrofa. Kind of assay: Ability to induce constriction of pig basilary artery. It is filed as functional. The conditions noted are these: read-out: ED50 (the source's name).

With `CNS(=O)(=O)Cc1ccc2[nH]cc(CCN(C)C)c2c1`, the EC50 in the assay filed under Canis familiaris turned out to be 160 nM; in the assay filed under Sus scrofa [1], 558 nM.

Regarding `CC(C)/N=C(\NC#N)NCCCNCC1CCc2ccccc2O1` (stereo not given), half-maximal inhibition in assay [2] (IC50) was put at 15.8 nM. The EC50 in the assay listed under Canis familiaris was found to be 115 nM.

In assay [2], `c1cnc(NCCNCC2CCc3ccccc3O2)nc1` (stereo not given) showed an IC50 of 31.6 nM. For the same molecule, the EC50 in the assay filed under Canis familiaris was 60 nM.

In the case of `c1ccc2c(c1)CCC(CNCCCNC1=NCCCN1)C2` (stereo not given), 126 nM corresponded to half-maximal inhibition in assay [2] (IC50). Further, the EC50 in the assay filed under Canis familiaris was determined as 615 nM.

`c1ccc2c(c1)CCC(CNCCCNc1nc3ccccc3[nH]1)O2` (stereo not given): the IC50 in assay [2] is over 100 nM. The EC50 in the assay filed under Canis familiaris was over 1000 nM.

In the case of `c1ccc2c(c1)CCC(CNCCCNc1ccncn1)O2` (stereo not given), in assay [2], the IC50 is 5.01 nM. Further, in the assay filed under Canis familiaris, the EC50 amounted to 78.7 nM.

Regarding `c1cnc(NCCCNCC2CCc3ccccc3O2)nc1` (stereo not given), the IC50 in assay [2] was 2 nM. For the same molecule, the EC50 in the assay filed under Canis familiaris is over 100 nM.

With `c1ccc2c(c1)CCC(CNCCCCNC1=NCCCN1)O2` (stereo not given), the midpoint of inhibition in assay [3], the IC50, lay at 7.94 nM. The EC50 in the assay filed under Canis familiaris was 11 nM.

As to `COc1cccc2c1CCC(CNCCCNC1=NCCCN1)O2` (stereo not given), the IC50 in assay [3] was over 1000 nM. Besides, in the assay filed under Canis familiaris, the EC50 was over 1000 nM.

`c1ccc2c(c1)CCC(CNCCCNc1cnccn1)O2` (stereo not given) had an IC50 in assay [2] of 3.98 nM. Moreover, the EC50 in the assay filed under Canis familiaris is 15.5 nM.

As to `c1ccc(NCCCNCC2CCc3ccccc3O2)nc1` (stereo not given), the concentration for half-maximal inhibition (IC50) in assay [2] is 1.26 nM. For the same molecule, the EC50 in the assay filed under Canis familiaris was 380 nM.

Molecule `c1ccc2c(c1)CCC(CNCCCNC1=NCCN1)O2` (stereo not given) had an IC50 in assay [2] of 12.6 nM. Moreover, in the assay filed under Canis familiaris, the EC50 is 31.5 nM.

Regarding `c1ccc2c(c1)CC[C@@H](CNCCCNC1=NCCCN1)O2`, the concentration for half-maximal inhibition (IC50) in assay [2] was 50.1 nM. Moreover, the EC50 in the assay listed under Canis familiaris is 51.5 nM.

Take `c1ccc2c(c1)CC[C@H](CNCCCNC1=NCCCN1)O2`: in assay [2], half-maximal inhibition (IC50) required 5.01 nM. Moreover, the EC50 in the assay filed under Canis familiaris was found to be 9.09 nM; in the assay listed under Sus scrofa [4] (Sus scrofa), 22.9 nM; in the assay filed under Sus scrofa [4], 29.2 nM.

In assay [3], `COc1cccc2c1OC(CNCCCNC1=NCCCN1)CC2` (stereo not given) gave an IC50 of 5.01 nM. Also, the EC50 in the assay filed under Canis familiaris is 2.09 nM.

In assay [2], `c1ccc2c(c1)NCC(CNCCCNC1=NCCCN1)O2` (stereo not given) had a half-inhibitory concentration (IC50) of over 1000 nM. The EC50 in the assay filed under Canis familiaris was over 1000 nM.

Molecule `c1ccc2c(c1)CC(CNCCCNC1=NCCCN1)CO2` (stereo not given) gave a half-inhibitory concentration (IC50) in assay [2] of over 1000 nM. In addition, in the assay listed under Canis familiaris, the EC50 was over 1000 nM.

Take `c1ccc2c(c1)CCC(CNCCCNC1=NCCCN1)O2` (stereo not given): the IC50 in assay [3] is 12.6 nM. Further, the EC50 in the assay filed under Canis familiaris stood at 4.53 nM.

Take `CC1(CNCCCNC2=NCCCN2)CCc2ccccc2O1` (stereo not given): the IC50 in assay [2] is over 1000 nM. For the same molecule, in the assay filed under Canis familiaris, the EC50 was over 1000 nM.

On to `c1ccc2c(c1)CCC(CNCCNC1=NCCCN1)O2` (stereo not given), for which the midpoint of inhibition in assay [3], the IC50, lay at 15.8 nM. The EC50 in the assay listed under Canis familiaris amounted to 49.4 nM.

For `c1ccc2c(c1)CCC(CNCCCCCNC1=NCCCN1)O2` (stereo not given), the IC50 in assay [3] is 5.01 nM. The EC50 in the assay listed under Canis familiaris stood at 15.2 nM.

Molecule `COc1ccc2c(c1)CCC(CNCCCNC1=NCCCN1)O2` (stereo not given) gave a concentration for half-maximal inhibition (IC50) in assay [3] of over 1000 nM. The EC50 in the assay listed under Canis familiaris was over 1000 nM.

Molecule `Clc1ccc(NCCCNCC2CCc3ccccc3O2)nn1` (stereo not given) had a 50% inhibitory concentration (IC50) in assay [2] of 0.398 nM. Moreover, the EC50 in the assay filed under Canis familiaris was over 100 nM.

As for `c1ccc2c(c1)CCC(CNCCCNc1nccs1)O2` (stereo not given), the IC50 in assay [2] is 1.58 nM. The EC50 in the assay listed under Canis familiaris was 570 nM.

On to `c1ccc2c(c1)OCC(CNCCCNC1=NCCCN1)O2` (stereo not given), for which the IC50 in assay [2] was 20 nM. Besides, the EC50 in the assay filed under Canis familiaris is 66.5 nM.

As for `CCc1ccc2c(c1)OC(CNCCCNC1=NCCCN1)CC2` (stereo not given), it took 3.98 nM to reach half-maximal inhibition in assay [3] (IC50). In addition, the EC50 in the assay listed under Canis familiaris turned out to be 1.93 nM.

With `Fc1ccc2c(c1)CCC(CNCCCNC1=NCCCN1)O2` (stereo not given), the IC50 in assay [3] was 25.1 nM. In addition, the EC50 in the assay filed under Canis familiaris amounted to 19.7 nM.

As to `CC(C)/N=C(\N)NNCCCNCC1CCc2ccccc2O1` (stereo not given), the half-inhibitory concentration (IC50) in assay [3] is 7.94 nM. Also, in the assay filed under Canis familiaris, the EC50 was found to be 4.8 nM.

`O=C1CCCN=C(NCCCNCC2CCc3ccccc3O2)N1` (stereo not given) had a half-inhibitory concentration (IC50) in assay [2] of 2 nM. In addition, in the assay filed under Canis familiaris, the EC50 is over 1000 nM.

`c1ccc2c(c1)CCC(CNCCCNC1=NCCCC1)O2` (stereo not given) showed a 50% inhibitory concentration (IC50) in assay [2] of 6.31 nM. The EC50 in the assay filed under Canis familiaris was found to be 17 nM.

In assay [2], `c1ccc2c(c1)CC(CNCCCNC1=NCCCN1)O2` (stereo not given) showed an IC50 of 50.1 nM. The EC50 in the assay listed under Canis familiaris was over 1000 nM.

`CN1c2ccccc2CCC1CNCCCNC1=NCCCN1` (stereo not given): in assay [2], the 50% inhibitory concentration (IC50) was over 1000 nM. For the same molecule, the EC50 in the assay listed under Canis familiaris was over 1000 nM.

In turn, `COc1ccc2c(c1)OC(CNCCCNC1=NCCCN1)CC2` (stereo not given) showed an IC50 in assay [3] of 12.6 nM. Moreover, the EC50 in the assay filed under Canis familiaris was 17.8 nM.

In assay [2], `c1ccc2c(c1)CCCC(CNCCCNC1=NCCCN1)O2` (stereo not given) showed an IC50 of over 1000 nM. Besides, the EC50 in the assay listed under Canis familiaris was over 1000 nM.

Usually IC50 stands for the concentration at which inhibition is half-maximal. Lower therefore signals inhibition by little substance.
